In one test the target is D-dopachrome tautomerase (Homo sapiens, UniProt P30046). The test can be described thus: D-dopachrome tautomerase (DDT) enzyme assay with D-dopachrome substrate. The format is biochemical. To be noted: for D-Dopachrome Tautomerase at 100 μM (% of control): test compound 100 μM, remaining activity, 100% = inactive; for pIC50: DDT assays similar to those described in Example 2.

The subject of test [1] is mushroom tyrosinase. The test can be described thus: Mushroom tyrosinase assay with L-dopa. The settings on record: for Mushroom Tyrosinase at 100 μM (% of control): test compound 100 μM, percent of untreated control reaction. The test is classed as biochemical. As for the experimental part:
A stock solution of 10 mM L-dopa (3,4-Dihydroxyphenylalanine, Sigma Cat #D9628) was prepared in sodium phosphate buffer (100 mM, pH 7.0) along with a stock solution of 0.1 mg/mL (605 units/ml) mushroom tyrosinase (Sigma cat #T7755) in phosphate buffer and stored at […] 4° C. until use.
Test compounds (dissolved in DMSO) were first diluted in phosphate buffer to working concentrations of 1 mM. For each test, 150 μL of phosphate buffer, 10 μL of the L-dopa stock and 20 μL of each compound were added to each well of a 96 well clear bottom microtiter plate and mixed three times. 20 μL of mushroom tyrosinase stock solution was added, mixed and the absorbency read at 475 nm at 0, 2, 4, and 6.5 minutes. The points were plotted as absorbency vs. time and the slope of the line calculated. Values are expressed as the percent of the respective untreated control reaction. The final DMSO concentration in each sample was less than or equal to 1.0%

Test [2] relates to Melanoderm tissue equivalent model MEL-300 containing melanocytes. The test is described as follows: Melanoderm tissue equivalent model, total melanin content. The test is classed as cell-based. To be noted: 10 μM in maintenance medium, 14 days. As to the method: Melanoderm™ tissue equivalent model MEL-300 (MatTek: Ashland, Mass.) containing melanocytes obtained from dark skin individuals were cultured as per supplier instructions. Components were added to the maintenance medium phase (no topical treatments) at a final concentration of 10 μM for 14 days at which time the experiment was terminated and the tissues assessed for melanin content. Medium and treatments were changed three times per week. DMSO was utilized as the vehicle control and all treatments were performed in duplicate.
For quantification of total melanin, each Melanoderm was placed into an individual Eppendorf tube (2 mL) into which 250 μL of Solvable™ tissue solubilizer (Packard Bioscience Co., Cat#6NE9100) was added. Each tube was vortexed and incubated at 60° C. for 18 hours. After about […], each sample was centrifuged (5-minutes at 13,000 RPMs) to remove any particulates. One hundred μL of supernatant were transferred to a 96 well microtiter plate and the absorbance read at 490 nm. Total melanin content was calculated from a standard curve using synthetic melanin (Sigma Cat#M8631).
All the following components were tested at a final concentration of 10 μM: […]

Test [3] has as its system mushroom tyrosinase. The test is described as follows: Mushroom tyrosinase assay with L-dopa. The test is classed as biochemical. The settings on record: Tested at 1 μM.

pIC50: −log10 of the molar value.

D-dopachrome tautomerase, sequence (P30046 2-118 limits assumed): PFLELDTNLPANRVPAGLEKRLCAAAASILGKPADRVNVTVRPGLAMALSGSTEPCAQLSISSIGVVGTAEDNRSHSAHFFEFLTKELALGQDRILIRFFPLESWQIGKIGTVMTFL
Procedure for D-dopachrome tautomerase: A 125-mM sodium periodate working solution was prepared in H2O in an amber 5-mL vial (prepared fresh on the day of the assay). 4.3 mg of dihydroxy-D-phenylalanine (D-dopa) were weighed into a 20 mL scintillation vial equipped with a pierceable septa screw cap. With the use of a liquid transfer cannula, 12 mL of degassed buffer was first transferred into a 15 mL graduated conical tube and subsequently poured into the scintillation vial containing the D-dopa. The D-dopa was dissolved for ten (10) minutes while stirring under nitrogen. The resulting working solution was 1.8 mM. Once sodium periodate was added to the dissolved D-dopa, the resulting D-dopachrome was utilized immediately to prevent substrate degradation.
Concentrations were based on a final reaction volume of 200 μL. A total of 75 μL of buffer (100 mM potassium phosphate, pH 6.8) was added to each well of a clear flat bottom 96-well microtiter plate. To the blank control wells (no DDT), 25 μL of 10% glycerol/assay buffer was added. DMSO (5 μL) was added to blank wells and to the enzyme control wells (DDT alone with no inhibitors). […] To the remaining wells, 5 μL of test compounds diluted in DMSO was added for a final concentration of 100 μM. Lastly, 25 μL of DDT in assay buffer was added to all wells except for the substrate control wells. The concentration of DDT utilized was such that it produced a ΔOD475 of approximately 1.0 at the 40-second read time point between the blank and total.
With the use of a 1 mL syringe, 0.33 ml of the 125 mM sodium periodate working solution was added to the dissolved D-dopa and stirred for 30 seconds. The resulting D-dopachrome was transferred to a reagent reservoir and 100 μL immediately added to the first row of interest in the assay plate (resulting final substrate concentration in the assay is 0.9 mM). The plate was shaken for 2 seconds on a Spectromax plate reader and the decrease in absorbance measured over 40 seconds. 100 μL of D-dopachrome was added to the next row of interest in the assay plate and this procedure was repeated until four (4) rows were assayed and read. Often approximately 6-7 minutes, the remaining substrate was discarded.
Percent inhibition was calculated utilizing the OD values at the 40-second time point according to the following formula:
• A=percent inhibition of the unknown; • B=average percent inhibition for the 4 positive control values (within 4 distinct assay rows) generated with a single batch of substrate also used to assay the unknown of interest; • C=percent inhibition for the positive control for the assay row of interest which contains the unknown compound of interest.

Take `CC(C)CC(C(=O)NC1CCCC1)N(C(=O)c1snc(C(N)=O)c1N)c1ccc(F)cc1` (stereo not drawn) [N5-(1-(cyclopentylcarbamoyl)-3-methylbutyl)-4-amino-N5-(4-fluorophenyl)isothiazole-3,5-dicarboxamide]: the “D-Dopachrome Tautomerase at 100 μM (% of control)” value on D-dopachrome tautomerase is listed as 65.7% of control. Further, the “Mushroom Tyrosinase at 100 μM (% of control)” value with mushroom tyrosinase [1] was 100.6% of control.

For the molecule `CC(C)(C)NC(=O)C(c1ccc(F)cc1)N(C(=O)c1snc(C(N)=O)c1N)c1cccc(F)c1` (stereo not drawn) [N5-((tert-butylcarbamoyl)(4-fluorophenyl)methyl)-4-amino-N5-(3-fluorophenyl)isothiazole-3,5-dicarboxamide], the “D-Dopachrome Tautomerase at 100 μM (% of control)” value on D-dopachrome tautomerase is recorded as 48.0% of control. Moreover, the “Mushroom Tyrosinase at 100 μM (% of control)” value in the test with mushroom tyrosinase [1] is 106.1% of control.

For the molecule `CC(C)(C)NC(=O)C(c1ccc(F)cc1)N(Cc1ccccc1)C(=O)c1snc(C(N)=O)c1N` (stereo not drawn) [N5-((tert-butylcarbamoyl)(4-fluorophenyl)methyl)-4-amino-N5-benzylisothiazole-3,5-dicarboxamide], on D-dopachrome tautomerase, the “D-Dopachrome Tautomerase at 100 μM (% of control)” value was 69.9% of control. Besides, in the test on mushroom tyrosinase [1], the “Mushroom Tyrosinase at 100 μM (% of control)” value is reported as 98.6% of control.

Regarding `CNC(=O)c1ccccc1NC(=O)c1c(O)nc2c(c1O)CCCC2` [N-(2-(methylcarbamoyl)phenyl)-5,6,7,8-tetrahydro-2,4-dihydroxyquinoline-3-carboxamide], the “D-Dopachrome Tautomerase at 100 μM (% of control)” value on D-dopachrome tautomerase is 65.3% of control. Further, the “Mushroom Tyrosinase at 100 μM (% of control)” value in the test on mushroom tyrosinase [1] was 100.0% of control.

In the case of `CCOC(=O)c1c(NC(=O)/C=C/C(=O)O)sc2c1CCC(C(C)(C)CC)C2` (stereo not drawn) [(E)-3-(3-(ethoxycarbonyl)-6-tert-pentyl-4,5,6,7-tetrahydrobenzo[b]thiophen-2-ylcarbamoyl)acrylic acid], the “D-Dopachrome Tautomerase at 100 μM (% of control)” value at D-dopachrome tautomerase is 14.9% of control. In the test on mushroom tyrosinase [1], the “Mushroom Tyrosinase at 100 μM (% of control)” value is on record as 90.8% of control.

Consider `CCCC(C(=O)NC(C)(C)C)N(Cc1ccccc1Cl)C(=O)c1snc(C(N)=O)c1N` (stereo not drawn) [N-5-(1-(tert-butylcarbamoyl)butyl)-N5-(2-chlorobenzyl)-4-aminoisothiazole-3,5-dicarboxamide], for which, on D-dopachrome tautomerase, the “D-Dopachrome Tautomerase at 100 μM (% of control)” value is 64.3% of control. For the same molecule, in the test with mushroom tyrosinase [1], the “Mushroom Tyrosinase at 100 μM (% of control)” value is 102.5% of control.

One may read the inhibition as how much of the control response was suppressed. For `CCCCC/C=C\C/C=C\C/C=C\C/C=C\CCCC(=O)O` [arachidonic acid, reference compound], at D-dopachrome tautomerase (75 μM final concentration, read-out: inhibition of DDT (positive control)), the inhibition at 75 µM is around 50%.

One may read the pIC50 as −log10 of the IC50, conventionally taken in molar units. The low end stands for a high IC50, the high end for a low IC50. `O=c1c(O)c(-c2ccc(O)cc2O)oc2cc(O)cc(O)c12` [Morin, 2-(2,4-dihydroxyphenyl)-3,5,7-4H-1-benzopyran-4-one] showed a pIC50 against D-dopachrome tautomerase of 4.56. Besides, the “Reduction in Melanin” value in test [2] stood at 7.2%.

As for `Oc1nc2cc(I)c(I)cc2o1` [5,6-diiodobenzo[d]oxazol-2-ol], the “D-Dopachrome Tautomerase at 100 μM (% of control)” value at D-dopachrome tautomerase is 56.1% of control. In addition, the “Mushroom Tyrosinase at 100 μM (% of control)” value in the test with mushroom tyrosinase [1] is 99.3% of control.

Take `CC(C)(C)NC(=O)C(c1ccc(F)cc1)N(C(=O)c1snc(C(N)=O)c1N)c1ccccc1` (stereo not drawn) [N5-((tert-butylcarbamoyl)(4-fluorophenyl)methyl)-4-amino-N5-phenylisothiazole-3,5-dicarboxamide]: at D-dopachrome tautomerase, the “D-Dopachrome Tautomerase at 100 μM (% of control)” value is listed as 52.3% of control. In the test on mushroom tyrosinase [1], the “Mushroom Tyrosinase at 100 μM (% of control)” value is on record as 101.9% of control.

Regarding `CC(C)(C)C1CCc2c(sc(NC(=O)/C=C/C(=O)O)c2C#N)C1` (stereo not drawn) [(E)-3-(6-tert-butyl-3-cyano-4,5,6,7-tetrahydrobenzo[b]thiophen-2-ylcarbamoyl)acrylic acid], the “D-Dopachrome Tautomerase at 100 μM (% of control)” value on D-dopachrome tautomerase is reported as 8.4% of control. Also, the “Mushroom Tyrosinase at 100 μM (% of control)” value in the test on mushroom tyrosinase [1] was 88.2% of control.

Turning to `CC(C)(C)NC(=O)C(c1c[nH]c2ccccc12)N(C(=O)c1snc(C(N)=O)c1N)c1ccccc1` (stereo not drawn) [N5-((tert-butylcarbamoyl)(1H-indol-3-yl)methyl)-4-amino-N5-phenylisothiazole-3,5-dicarboxamide], at D-dopachrome tautomerase, the “D-Dopachrome Tautomerase at 100 μM (% of control)” value was 40.9% of control. Also, the “Mushroom Tyrosinase at 100 μM (% of control)” value in the test on mushroom tyrosinase [1] was 96.0% of control.

As for `CC(C)CC(C(=O)NC1CCCC1)N(C(=O)c1snc(C(N)=O)c1N)c1cccc(F)c1` (stereo not drawn) [N5-(1-(cyclopentylcarbamoyl)-3-methylbutyl)-4-amino-N5-(3-fluorophenyl)isothiazole-3,5-dicarboxamide], at D-dopachrome tautomerase, the “D-Dopachrome Tautomerase at 100 μM (% of control)” value was 64.9% of control. The “Mushroom Tyrosinase at 100 μM (% of control)” value in the test with mushroom tyrosinase [1] is on record as 105.2% of control.

Turning to `O=C(O[C@@H]1Cc2c(O)cc(O)cc2O[C@@H]1c1cc(O)c(=O)c2c(O)c(O)cc([C@H]3Oc4cc(O)cc(O)c4C[C@H]3OC(=O)c3cc(O)c(O)c(O)c3)c2c1)c1cc(O)c(O)c(O)c1` [Theaflavin Digallate], in test [2], the “Reduction in Melanin” value was 26.6%.

On to `CC(C)CC(C(=O)NC1CCCC1)N(C(=O)c1snc(C(N)=O)c1N)c1ccccc1` (stereo not drawn) [N5-(1-(cyclopentylcarbamoyl)-3-methylbutyl)-4-amino-N5-phenylisothiazole-3,5-dicarboxamide], for which the “D-Dopachrome Tautomerase at 100 μM (% of control)” value on D-dopachrome tautomerase is on record as 69.2% of control. For the same molecule, in the test on mushroom tyrosinase [1], the “Mushroom Tyrosinase at 100 μM (% of control)” value was 89.4% of control.

`CCc1ccc(O)cc1O` [4-Ethyl Resorcinol, reference compound]: on D-dopachrome tautomerase, the “activity in the DDT assay (in words)” value was “inactive” and the “D-Dopachrome Tautomerase at 100 μM (% of control)” value is reported as 100% of control. The “Mushroom Tyrosinase (% of control)” value in the test on mushroom tyrosinase [3] is recorded as 42.3% of control. Also, the “inhibition of mushroom tyrosinase (in words)” value in the test on mushroom tyrosinase [1] is “potent inhibitor”.

Regarding `CCc1ccc(NC(=O)/C=C/C(=O)O)cc1` [(E)-3-(4-ethylphenylcarbamoyl)acrylic acid], the “D-Dopachrome Tautomerase at 100 μM (% of control)” value at D-dopachrome tautomerase is 40.5% of control. In addition, the “Mushroom Tyrosinase at 100 μM (% of control)” value in the test with mushroom tyrosinase [1] was 89.4% of control.

As for sodium isostearoyl lactylate, at D-dopachrome tautomerase, the negative logarithm of the IC50 (pIC50) is 4.84. Besides, in test [2], the “Reduction in Melanin” value came out at 6.2%.

As to `NC(=O)c1nsc(C(=O)N(c2ccccc2)C(C(=O)NC2CCCC2)c2cccs2)c1N` (stereo not drawn) [N5-((cyclopentylcarbamoyl)(thiophen-2-yl)methyl)-4-amino-N5-phenylisothiazole-3,5-dicarboxamide], the “D-Dopachrome Tautomerase at 100 μM (% of control)” value at D-dopachrome tautomerase is given as 66.8% of control. Moreover, in the test on mushroom tyrosinase [1], the “Mushroom Tyrosinase at 100 μM (% of control)” value is recorded as 101.8% of control.

Regarding `O=C1C=CC(=O)c2c(O)cccc21` [Juglone, 5-hydroxy-1,4-naphthalenedione], the negative logarithm of the IC50 (pIC50) on D-dopachrome tautomerase is 4.83. The “Reduction in Melanin” value in test [2] was 32.8%.

`O=c1c(-c2cc(O)c(O)c(O)c2)coc2cc(O)c(O)c(O)c12` [Irigenol, 5,6,7-trihydroxy-3-(3,4,5-trihydroxyphenyl)-4H-1-benzopyran-4-one] showed a pIC50 at D-dopachrome tautomerase of 4.43. Moreover, the “Reduction in Melanin” value in test [2] is 7.0%.
